From patent US11180497B2 (ANGEX PHARMACEUTICAL, INC., priority 2017, dated 2021) come the findings set out here.

The target in the test is T1, Human IDO (Homo sapiens, UniProt P14902).
T1 construct: High control is Hela cells with IFNγ treatment; endogenous in cells; host or cells: HeLa cells treated with 25 ng/ml IFNγ
T1 sequence (P14902 whole entry): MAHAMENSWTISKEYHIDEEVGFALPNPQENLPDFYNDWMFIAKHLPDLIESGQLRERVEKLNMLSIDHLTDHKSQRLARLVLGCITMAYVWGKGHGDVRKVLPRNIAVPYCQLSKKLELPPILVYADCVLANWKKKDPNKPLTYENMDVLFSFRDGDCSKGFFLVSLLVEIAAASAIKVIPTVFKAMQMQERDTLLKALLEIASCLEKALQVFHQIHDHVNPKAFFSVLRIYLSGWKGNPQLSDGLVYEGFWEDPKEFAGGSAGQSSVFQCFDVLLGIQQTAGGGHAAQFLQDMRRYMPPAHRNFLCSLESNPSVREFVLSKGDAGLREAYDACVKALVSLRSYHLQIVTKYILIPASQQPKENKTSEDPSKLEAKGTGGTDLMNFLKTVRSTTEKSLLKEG
Briefly: HeLa cell IDO assay (IFNγ-treated cells, N-formylkynurenine by RapidFire/MS/MS). Type of test: cell-based. The conditions noted are these: 25 ng/ml IFNγ, 200 μM Trp, 48 hours, class symbol.
Usually IC50 stands for the point on the concentration scale where inhibition reaches its midpoint. Low readings indicate higher potency, high ones lower potency. The molecule `O=C(Nc1ccc(Cl)cc1F)[C@H]1C[C@]12CC[C@H](c1ccnc3ccc(F)cc31)CC2` (single isomer, unassigned) [Compound 4-7] displayed a 50% inhibitory concentration (IC50) of under 100 nM.
`O=C(Nc1ccc(Cl)cc1)C1CCC12CCC(c1ccnc3ccc(F)cc13)CC2` (stereo not drawn) [Compound 15-3, N-(4-chlorophenyl)-7-(6-fluoroquinolin-4-yl)spiro[3.5]nonane-1-carboxamide]: the concentration for half-maximal inhibition (IC50) was over 1000 nM.
`N#Cc1ccc(NC(=O)[C@H]2C[C@]23CC[C@H](c2ccnc4ccc(F)cc42)CC3)cc1` (single isomer, unassigned) [Compound 4-6] showed an IC50 of under 100 nM.
Consider `O=C(NC1CC2(CCC(c3ccnc4ccc(F)cc34)CC2)C1)c1ccc(Cl)cc1` (single isomer, unassigned) [Compound 17-7, 4-chloro-N-(7-(6-fluoroquinolin-4-yl)spiro[3.5]nonan-2-yl)benzamide], for which the IC50 is 100 to 1000 nM.
The same measure for `O=C(NC1CC12CCC(c1ccnc3ccc(F)cc13)CC2)c1ccc(Cl)cc1` (single isomer, unassigned) [Compound 9-5, 4-chloro-N-(6-(6-fluoroquinolin-4-yl)spiro[2.5]octan-1-yl)benzamide]: over 1000 nM; for `O=C(Nc1ccc(Cl)cc1F)[C@H]1C[C@]12CC[C@H](c1ccnc3ccc(F)cc31)CC2` [Compound 2-5]: under 100 nM; for `O=C(NC1(C2CCN(c3ccnc4ccc(F)cc34)CC2)CC1)c1ccc(Cl)cc1` [Compound 27-3, 4-chloro-N-[1-[1-(6-fluoroquinolin-4-yl)piperidin-4-yl]cyclopropyl]benzamide]: 100 to 1000 nM.
`O=C(NC1CCC12CCC(c1ccnc3ccc(F)cc13)CC2)c1ccc(Cl)cc1` (stereo not drawn) [Compound 14-7, 4-chloro-N-(7-(6-fluoroquinolin-4-yl)spiro[3.5]nonan-1-yl)benzamide] came in with an IC50 of over 1000 nM.
Turning to `O=C(Nc1ccccc1F)[C@H]1C[C@]12CC[C@H](c1ccnc3ccc(F)cc31)CC2` [Compound 1-16], the IC50 lay in the range of 100 to 1000 nM.
Consider `O=C(Nc1ccc(Cl)cc1)C1(F)CC12CCC(c1ccnc3ccc(F)cc13)CC2` (stereo not drawn) [Compound 10-4, N-(4-chlorophenyl)-1-fluoro-6-(6-fluoroquinolin-4-yl)spiro[2.5]octane-1-carboxamide], for which the IC50 was 100 to 1000 nM.
`O=C(N[C@H]1CC2(CC[C@H](c3ccnc4ccncc43)CC2)C1)c1ccc(Cl)cc1` (single isomer, unassigned) [Compound 21-5]: the IC50 was over 1000 nM.
The molecule `O=C(NC1CC12CCC(c1ccnc3ccc(F)cc13)CC2)c1ccc(Cl)cc1` (single isomer, unassigned) [Compound 9-4, 4-chloro-N-(6-(6-fluoroquinolin-4-yl)spiro[2.5]octan-1-yl)benzamide] gave a 50% inhibitory concentration (IC50) of under 100 nM.
`O=C([C@H]1C[C@]12CC[C@H](c1ccnc3ccc(F)cc31)CC2)N1CCC(C(F)(F)F)CC1` [Compound 1-20] had an IC50 of over 1000 nM.
Take `O=C(Nc1ccc(Cl)cc1)C1CC2(CCC(c3ccnc4ccncc34)CC2)C1` (single isomer, unassigned) [Compound 20-9, N-(4-chlorophenyl)-7-(1,6-naphthyridin-4-yl)spiro[3.5]nonane-2-carboxamide]: the IC50 is over 1000 nM.
`O=C(NC1CC2(CCN(c3ccnc4ccncc34)CC2)C1)c1ccc(Cl)cc1` [Compound 22-5, N-(7-(1,6-naphthyridin-4-yl)-7-azaspiro[3.5]nonan-2-yl)-4-chlorobenzamide] displayed an IC50 of over 1000 nM.
Molecule `O=C(Nc1ccc(-n2cccn2)cc1)[C@H]1C[C@]12CC[C@H](c1ccnc3ccc(F)cc31)CC2` [Compound 1-22] returned an IC50 of 100 to 1000 nM.
In turn, `CC1(C(=O)Nc2ccc(Cl)cc2)CC12CCC(c1ccnc3ccc(F)cc13)CC2` (single isomer, unassigned) [Compound 11-6, N-(4-chlorophenyl)-6-(6-fluoroquinolin-4-yl)-1-methylspiro[2.5]octane-1-carboxamide] registered a half-inhibitory concentration (IC50) of under 100 nM.
In turn, `O=C(Nc1ccc(Cl)cc1)C1CC2(CCC(c3ccnc4ccc(F)cc34)CC2)C1` (single isomer, unassigned) [Compound 16-7, N-(4-chlorophenyl)-7-(6-fluoroquinolin-4-yl)spiro[3.5]nonane-2-carboxamide] had an IC50 of under 100 nM.
Molecule `O=C(Nc1ccc(F)cn1)[C@H]1C[C@]12CC[C@H](c1ccnc3ccc(F)cc31)CC2` [Compound 2-6] displayed an IC50 of under 100 nM.
`O=C(NC1CC2(CCN(c3ccnc4ccc(F)cc34)CC2)C1)c1ccc(Cl)cc1` [Compound 18-5, 4-chloro-N-(7-(6-fluoroquinolin-4-yl)-7-azaspiro[3.5]nonan-2-yl)benzamide] registered a half-maximal inhibitory concentration (IC50) of under 100 nM.
For the molecule `CC1(C(=O)Nc2ccc(Cl)cc2)CC12CCC(c1ccnc3ccc(F)cc13)CC2` (single isomer, unassigned) [Compound 11-5, N-(4-chlorophenyl)-6-(6-fluoroquinolin-4-yl)-1-methylspiro[2.5]octane-1-carboxamide], the IC50 is under 100 nM.
`O=C(Nc1cccc(C(F)(F)F)c1)[C@H]1C[C@]12CC[C@H](c1ccnc3ccc(F)cc31)CC2` [Compound 1-17] had an IC50 of over 1000 nM.
On to `O=C(Nc1ccc(F)cc1)[C@H]1C[C@]12CC[C@H](c1ccnc3ccc(F)cc31)CC2` [Compound 1-12], for which the IC50 was under 100 nM.
`O=C(NC1CC12CCN(c1ccnc3ccc(F)cc13)CC2)c1ccc(Cl)cc1` (stereo not drawn) [Compound 13-3, 4-chloro-N-(6-(6-fluoroquinolin-4-yl)-6-azaspiro[2.5]octan-1-yl)benzamide]: the IC50 is 100 to 1000 nM.
The same measure for `O=C(Nc1ccc(Br)cc1F)[C@H]1C[C@]12CC[C@H](c1ccnc3ccc(F)cc31)CC2` (single isomer, unassigned) [Compound 4-8]: under 100 nM; for `O=C(Nc1ccc(Cl)cn1)[C@H]1C[C@]12CC[C@H](c1ccnc3ccc(F)cc31)CC2` [Compound 2-3]: 100 to 1000 nM; for `Cc1ccc(NC(=O)[C@H]2C[C@]23CC[C@H](c2ccnc4ccc(F)cc42)CC3)cc1` [Compound 1-14]: under 100 nM.
Consider `O=C(Nc1ccc(Cl)cc1)C1CC2(CCC(c3ccnc4ccc(F)cc34)CC2)C1` (single isomer, unassigned) [Compound 16-8, N-(4-chlorophenyl)-7-(6-fluoroquinolin-4-yl)spiro[3.5]nonane-2-carboxamide], for which the IC50 was over 1000 nM.
As for `O=C(NN1CCCCC1)[C@H]1C[C@]12CC[C@H](c1ccnc3ccc(F)cc31)CC2` [Compound 1-18], the IC50 is over 1000 nM.
`N#Cc1ccc(NC(=O)[C@H]2C[C@]23CC[C@H](c2ccnc4ccc(F)cc42)CC3)nc1` [Compound 3-3] had an IC50 of 100 to 1000 nM.
To `N#Cc1ccc2nccc([C@H]3CC[C@@]4(CC3)C[C@@H]4C(=O)Nc3ccc(Cl)cc3)c2c1` [Compound 8-4B] belongs under 100 nM; to `O=C(Nc1ccc(I)cc1)[C@H]1C[C@]12CC[C@H](c1ccnc3ccc(F)cc31)CC2` (single isomer, unassigned) [Compound 4-5], under 100 nM.
As to `O=C(Nc1cccc(Cl)c1)[C@H]1C[C@]12CC[C@H](c1ccnc3ccc(F)cc31)CC2` [Compound 1-15], the IC50 was 100 to 1000 nM.
